From patent EP4810052A2, “HCRHR2 SELECTIVE POLYPEPTIDES” (Gubra A/S, priority 2023, dated 2026) come the findings set out here.

Where two headings read alike, the source gives them in different places. Starred links: 1 amine or outer side, 2 acyl side, 3 side chain; linkers in the order of their positions; H or OH if unused. Non-standard residues stand in square brackets, D forms with d. Residues, ends and D or L forms follow the SMILES beside them. Groups on a side chain read outwards from the residue. *: point of attachment. C20 diacid = O=C(O)CCCCCCCCCCCCCCCCCCC(=O)*; γGlu = O=C(O)[C@H](CCC(=O)[*:2])N[*:1]; Nle = CCCC[C@H](N)C(=O)O; AEEA = NCCOCCOCC(=O)O

One assay addresses T1, hCRHR2 (Homo sapiens, UniProt Q13324).
T1 sequence (Q13324 1-411): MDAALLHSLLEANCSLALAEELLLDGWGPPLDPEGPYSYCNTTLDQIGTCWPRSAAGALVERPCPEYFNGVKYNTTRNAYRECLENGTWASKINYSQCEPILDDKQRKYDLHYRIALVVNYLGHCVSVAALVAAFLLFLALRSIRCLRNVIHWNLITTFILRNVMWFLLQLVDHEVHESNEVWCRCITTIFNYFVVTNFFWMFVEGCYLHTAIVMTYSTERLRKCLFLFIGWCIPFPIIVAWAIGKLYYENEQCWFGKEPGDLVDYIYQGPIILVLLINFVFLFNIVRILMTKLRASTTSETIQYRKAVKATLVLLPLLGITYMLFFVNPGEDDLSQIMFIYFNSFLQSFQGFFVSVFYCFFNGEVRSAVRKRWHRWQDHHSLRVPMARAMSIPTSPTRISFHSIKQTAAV
Briefly: HTRF cAMP assay, determination of hCRHR2 potency (peptide libraries 5 conc., purified peptides 11 conc.). Format: cell-based. The method, boiled down:
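Read-out was HTRF competitive cAMP detection (d2-labelled cAMP, cryptate-labelled antibody) in suspended, freshly thawed CHO-K1 cells stably carrying human CRHR2.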

The target in another assay is T2, hCRHR1 (Homo sapiens, UniProt P34998).
T2 sequence (P34998 24-415): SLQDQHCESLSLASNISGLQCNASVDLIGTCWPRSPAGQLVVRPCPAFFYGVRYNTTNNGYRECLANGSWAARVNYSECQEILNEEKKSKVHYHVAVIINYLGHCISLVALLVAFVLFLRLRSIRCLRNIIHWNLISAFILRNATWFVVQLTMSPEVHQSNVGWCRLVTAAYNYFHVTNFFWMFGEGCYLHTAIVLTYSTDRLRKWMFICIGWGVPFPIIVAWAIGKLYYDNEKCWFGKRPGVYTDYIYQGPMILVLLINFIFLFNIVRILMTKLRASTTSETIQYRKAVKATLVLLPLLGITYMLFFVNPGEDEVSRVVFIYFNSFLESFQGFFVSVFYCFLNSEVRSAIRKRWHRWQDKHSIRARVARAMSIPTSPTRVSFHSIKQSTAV
Briefly: HTRF cAMP assay, determination of hCRHR1 potency (peptide libraries 5 conc., purified peptides 11 conc.). Format: cell-based. The gist of the method: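 Cellular cAMP was read by time-resolved FRET between d2-labelled cAMP and cryptate anti-cAMP antibody. The cells were freshly thawed suspension CHO-K1 cells stably expressing human CRHR1.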

Setting [1] is: Table 3, matched molecular pairs X^38 L vs Nle, peptide library of Example 4, read-out: hCRHR2 pEC50 (converted).
[2] abbreviates: Table 3, matched molecular pairs X^38 L vs Nle, peptide library of Example 4, read-out: hCRHR1 pEC50 (converted).
The mark [3] stands for this setting: library peptides, matched molecular pairs L vs Nle in position X^38, read-out: Potency hCRHR2 pEC50 (converted).
The mark [4] stands for this setting: library peptides, matched molecular pairs L vs Nle in position X^38, read-out: Potency hCRHR1 pEC50 (converted).

Turning to `CC[C@H](C)[C@H](N)C(=O)N[C@H](C(=O)N[C@@H](CC(C)C)C(=O)N[C@@H](CO)C(=O)N[C@@H](CC(C)C)C(=O)N[C@@H](CC(=O)O)C(=O)N[C@H](C(=O)N1CCC[C@H]1C(=O)N[C@H](C(=O)NCC(=O)N[C@@H](CC(C)C)C(=O)N[C@@H](CC(C)C)C(=O)N[C@@H](CCC(N)=O)C(=O)N[C@H](C(=O)N[C@@H](CC(C)C)C(=O)N[C@@H](CC(C)C)C(=O)N[C@@H](CCC(=O)O)C(=O)N[C@@H](CCC(N)=O)C(=O)N[C@@H](C)C(=O)N[C@@H](CCCNC(=N)N)C(=O)N[C@@H](C)C(=O)N[C@@H](CCC(N)=O)C(=O)N[C@@H](C)C(=O)N[C@@H](CCC(N)=O)C(=O)N[C@@H](CCCNC(=N)N)C(=O)N[C@@H](CCC(=O)O)C(=O)N[C@@H](CCC(N)=O)C(=O)N[C@@H](C)C(=O)N[C@@H](CCCCNC(=O)COCCOCCNC(=O)COCCOCCNC(=O)CC[C@H](NC(=O)CC[C@H](NC(=O)CCCCCCCCCCCCCCCCCCC(=O)O)C(=O)O)C(=O)O)C(=O)N[C@H](C(=O)N[C@@H](CC(N)=O)C(=O)N[C@@H](C)C(=O)N[C@@H](CCC(=O)O)C(=O)N[C@H](C(=O)N[C@@H](CC(C)C)C(=O)N[C@@H](C)C(=O)N[C@@H](CCC(=O)O)C(=O)N[C@H](C(N)=O)C(C)C)[C@@H](C)CC)[C@@H](C)O)[C@@H](C)CC)[C@@H](C)CC)C(C)C)C(C)C` [SEQ ID NO: 31] (H-IVLSLDVPIGLLQILLEQARAQAQREQAK([AEEA-AEEA-γGlu-γGlu-C20 diacid])TNAEILAEV-NH2), the EC50 at hCRHR2 (setting [1]) is 0.000794 µM; on hCRHR1 (setting [2]), 3.98 µM.

Regarding `CCCC[C@H](NC(=O)[C@@H](NC(=O)[C@H](CCC(=O)O)NC(=O)[C@H](C)NC(=O)[C@H](CC(N)=O)NC(=O)[C@@H](NC(=O)[C@H](CCCCNC(=O)COCCOCCNC(=O)COCCOCCNC(=O)CC[C@H](NC(=O)CC[C@H](NC(=O)CCCCCCCCCCCCCCCCCCC(=O)O)C(=O)O)C(=O)O)NC(=O)[C@H](C)NC(=O)[C@H](CCC(N)=O)NC(=O)[C@H](CCC(=O)O)NC(=O)[C@H](CCCNC(=N)N)NC(=O)[C@H](C)NC(=O)[C@H](C)NC(=O)[C@H](CCC(N)=O)NC(=O)[C@H](C)NC(=O)[C@H](CCCNC(=N)N)NC(=O)[C@H](C)NC(=O)[C@H](CCC(N)=O)NC(=O)[C@H](CCC(=O)O)NC(=O)[C@H](CC(C)C)NC(=O)[C@H](CC(C)C)NC(=O)[C@@H](NC(=O)[C@H](CCC(N)=O)NC(=O)[C@H](CC(C)C)NC(=O)[C@H](CC(C)C)NC(=O)CNC(=O)[C@@H](NC(=O)[C@@H]1CCCN1C(=O)[C@@H](NC(=O)[C@H](CC(=O)O)NC(=O)[C@H](CC(C)C)NC(=O)[C@H](CO)NC(=O)[C@H](CC(C)C)NC(=O)[C@@H](NC(=O)[C@@H](N)[C@@H](C)CC)C(C)C)C(C)C)[C@@H](C)CC)[C@@H](C)CC)[C@@H](C)O)[C@@H](C)CC)C(=O)N[C@@H](C)C(=O)N[C@@H](CCC(=O)O)C(=O)N[C@H](C(N)=O)C(C)C` [compound 63] (H-IVLSLDVPIGLLQILLEQARAQAAREQAK([AEEA-AEEA-γGlu-γGlu-C20 diacid])TNAEI[Nle]AEV-NH2), the figures for the EC50 at hCRHR2 (setting [3]) and at hCRHR1 (setting [4]) were 0.000251 µM and 0.501 µM, respectively.

On to `CC[C@H](C)[C@H](N)C(=O)N[C@H](C(=O)N[C@@H](CC(C)C)C(=O)N[C@@H](CO)C(=O)N[C@@H](CC(C)C)C(=O)N[C@@H](CC(=O)O)C(=O)N[C@H](C(=O)N1CCC[C@H]1C(=O)N[C@H](C(=O)NCC(=O)N[C@@H](CC(C)C)C(=O)N[C@@H](CC(C)C)C(=O)N[C@@H](CCC(N)=O)C(=O)N[C@H](C(=O)N[C@@H](CC(C)C)C(=O)N[C@@H](CC(C)C)C(=O)N[C@@H](CO)C(=O)N[C@@H](CCC(N)=O)C(=O)N[C@@H](C)C(=O)N[C@@H](CCCNC(=N)N)C(=O)N[C@@H](C)C(=O)N[C@@H](CCCNC(=N)N)C(=O)N[C@@H](C)C(=O)N[C@@H](C)C(=O)N[C@@H](CCCNC(=N)N)C(=O)N[C@@H](CCC(=O)O)C(=O)N[C@@H](CCC(N)=O)C(=O)N[C@@H](C)C(=O)N[C@@H](CCCCNC(=O)COCCOCCNC(=O)COCCOCCNC(=O)CC[C@H](NC(=O)CC[C@H](NC(=O)CCCCCCCCCCCCCCCCCCC(=O)O)C(=O)O)C(=O)O)C(=O)N[C@H](C(=O)N[C@@H](CC(N)=O)C(=O)N[C@@H](C)C(=O)N[C@@H](CCC(=O)O)C(=O)N[C@H](C(=O)N[C@@H](CC(C)C)C(=O)N[C@@H](C)C(=O)N[C@@H](CCC(=O)O)C(=O)N[C@H](C(N)=O)[C@@H](C)CC)[C@@H](C)CC)[C@@H](C)O)[C@@H](C)CC)[C@@H](C)CC)C(C)C)C(C)C` [compound 88] (H-IVLSLDVPIGLLQILLSQARARAAREQAK([AEEA-AEEA-γGlu-γGlu-C20 diacid])TNAEILAEI-NH2), for which the EC50 on hCRHR2 (setting [3]) is 0.000631 µM; on hCRHR1 (setting [4]), 39.8 µM.

On to `CCCC[C@H](NC(=O)[C@@H](NC(=O)[C@H](CCC(=O)O)NC(=O)[C@H](C)NC(=O)[C@H](CC(N)=O)NC(=O)[C@@H](NC(=O)[C@H](CCCCNC(=O)COCCOCCNC(=O)COCCOCCNC(=O)CC[C@H](NC(=O)CC[C@H](NC(=O)CCCCCCCCCCCCCCCCCCC(=O)O)C(=O)O)C(=O)O)NC(=O)[C@H](C)NC(=O)[C@H](CCCNC(=N)N)NC(=O)[C@H](CCC(=O)O)NC(=O)[C@H](CCCNC(=N)N)NC(=O)[C@H](C)NC(=O)[C@H](CO)NC(=O)[C@H](CCC(=O)O)NC(=O)[C@H](C)NC(=O)[C@H](CCCNC(=N)N)NC(=O)[C@H](C)NC(=O)[C@H](CCC(N)=O)NC(=O)[C@H](CCC(=O)O)NC(=O)[C@H](CC(C)C)NC(=O)[C@H](CC(C)C)NC(=O)[C@@H](NC(=O)[C@H](CCC(N)=O)NC(=O)[C@H](CC(C)C)NC(=O)[C@H](CC(C)C)NC(=O)CNC(=O)[C@@H](NC(=O)[C@@H]1CCCN1C(=O)[C@@H](NC(=O)[C@H](CC(=O)O)NC(=O)[C@H](CC(C)C)NC(=O)[C@H](CO)NC(=O)[C@H](CC(C)C)NC(=O)[C@@H](NC(=O)[C@@H](N)[C@@H](C)CC)C(C)C)C(C)C)[C@@H](C)CC)[C@@H](C)CC)[C@@H](C)O)[C@@H](C)CC)C(=O)N[C@@H](C)C(=O)N[C@@H](CCC(=O)O)C(=O)N[C@H](C(N)=O)[C@@H](C)CC` [SEQ ID NO: 22] (H-IVLSLDVPIGLLQILLEQARAESARERAK([AEEA-AEEA-γGlu-γGlu-C20 diacid])TNAEI[Nle]AEI-NH2), for which the EC50 on hCRHR2 (setting [1]) is 0.000158 µM; at hCRHR1 (setting [2]), 5.01 µM.

Take `CC[C@H](C)[C@H](N)C(=O)N[C@H](C(=O)N[C@@H](CC(C)C)C(=O)N[C@@H](CO)C(=O)N[C@@H](CC(C)C)C(=O)N[C@@H](CC(=O)O)C(=O)N[C@H](C(=O)N1CCC[C@H]1C(=O)N[C@H](C(=O)NCC(=O)N[C@@H](CC(C)C)C(=O)N[C@@H](CC(C)C)C(=O)N[C@@H](CCC(N)=O)C(=O)N[C@H](C(=O)N[C@@H](CC(C)C)C(=O)N[C@@H](CC(C)C)C(=O)N[C@@H](CCC(=O)O)C(=O)N[C@@H](CCC(N)=O)C(=O)N[C@@H](C)C(=O)N[C@@H](CCCNC(=N)N)C(=O)N[C@@H](C)C(=O)N[C@@H](CCCNC(=N)N)C(=O)N[C@@H](C)C(=O)N[C@@H](CCC(N)=O)C(=O)N[C@@H](CCCNC(=N)N)C(=O)N[C@@H](CCC(=O)O)C(=O)N[C@@H](CCC(N)=O)C(=O)N[C@@H](C)C(=O)N[C@@H](CCCCNC(=O)COCCOCCNC(=O)COCCOCCNC(=O)CC[C@H](NC(=O)CC[C@H](NC(=O)CCCCCCCCCCCCCCCCCCC(=O)O)C(=O)O)C(=O)O)C(=O)N[C@H](C(=O)N[C@@H](CC(N)=O)C(=O)N[C@@H](C)C(=O)N[C@@H](CCC(=O)O)C(=O)N[C@H](C(=O)N[C@@H](CC(C)C)C(=O)N[C@@H](C)C(=O)N[C@@H](CCC(=O)O)C(=O)N[C@H](C(N)=O)[C@@H](C)CC)[C@@H](C)CC)[C@@H](C)O)[C@@H](C)CC)[C@@H](C)CC)C(C)C)C(C)C` [compound 64] (H-IVLSLDVPIGLLQILLEQARARAQREQAK([AEEA-AEEA-γGlu-γGlu-C20 diacid])TNAEILAEI-NH2): the figures for the EC50 on hCRHR2 (setting [3]) and on hCRHR1 (setting [4]) were 0.000126 µM and 25.1 µM, respectively.
